Measured values: the supplement of paper PMC11061612

Experiments:
[1] = test system: HSC-4 (Oral Cavity Carcinoma); test: Bliss excess, mean over the matrix (fraction); higher = more synergy
Summary of the method: (§1)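 After 24 hours at 37°C and 5% CO2 in 1536-well plates, cells in DMEM/F12 or RPMI plus 10% FBS received two-drug dose matrices for 72 hours. Viability came from CellTiter-Glo 2.0 luminescence and was scaled as inhibition, anchored at 0 by vehicle wells and at 1 by blank wells. Combination Emax is taken as the second-highest inhibition in the matrix, and Bliss excess as the observed combination effect less EA + EB − EA·EB, with EA and EB the single-agent effects.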

[2] = test system: KMOE-2 (Acute Myeloid Leukemia); test: as above
Summary of the method: as §1

[3] = test system: C-4-I (Cervical Carcinoma); test: as above
Summary of the method: as §1

[4] = test system: NEC8 (Other Solid Carcinomas); test: as above
Summary of the method: as §1

[5] = test system: HGC-27 (Gastric Carcinoma); test: as above
Summary of the method: as §1

[6] = test system: OVCAR-4 (Ovarian Carcinoma); test: as above
Summary of the method: as §1

[7] = test system: NUGC-3 (Gastric Carcinoma); test: as above
Summary of the method: as §1

[8] = test system: NCI-H1915 (Non-Small Cell Lung Carcinoma); test: combination Emax (second highest fraction inhibited in the dose matrix, 72 h); higher = more inhibition; extreme values may be limits of the assay
Summary of the method: as §1

[9] = test system: HSC-4 (Oral Cavity Carcinoma); test: as above
Summary of the method: as §1

[10] = test system: TE-1 (Esophageal Squamous Cell Carcinoma); test: as above
Summary of the method: as §1

[11] = test system: KMOE-2 (Acute Myeloid Leukemia); test: as above
Summary of the method: as §1

[12] = test system: NEC8 (Other Solid Carcinomas); test: as above
Summary of the method: as §1

[13] = test system: OSC-20 (Oral Cavity Carcinoma); test: as above
Summary of the method: as §1

[14] = test system: PWR-1E (Non-Cancerous); test: as above
Summary of the method: as §1

[15] = test system: SCC-15 (Oral Cavity Carcinoma); test: as above
Summary of the method: as §1

[16] = test system: VA-ES-BJ (Other Solid Carcinomas); test: as above
Summary of the method: as §1

[17] = test system: SU8686 (Pancreatic Carcinoma); test: as above
Summary of the method: as §1

[18] = test system: OE19 (Esophageal Adenocarcinoma); test: as above
Summary of the method: as §1

[19] = test system: OVCAR-4 (Ovarian Carcinoma); test: as above
Summary of the method: as §1

[20] = test system: NUGC-3 (Gastric Carcinoma); test: as above
Summary of the method: as §1
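Wherever Bliss excess, mean over the matrix is given: after 72 h of two-drug dosing.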

SMILES	Bliss excess [1]	Bliss excess [2]	Bliss excess [3]	Bliss excess [4]	Bliss excess [5]	Bliss excess [6]	Bliss excess [7]	combination Emax [8]	combination Emax [9]	combination Emax [10]	combination Emax [11]	combination Emax [12]	combination Emax [13]	combination Emax [14]	combination Emax [15]	combination Emax [16]	combination Emax [17]	combination Emax [18]	combination Emax [19]	combination Emax [20]
Cc1nc(Nc2ncc(C(=O)Nc3c(C)cccc3Cl)s2)cc(N2CCN(CCO)CC2)n1 [Dasatinib] + CC(=O)Nc1cccc(-n2c(=O)n(C3CC3)c(=O)c3c(Nc4ccc(I)cc4F)n(C)c(=O)c(C)c32)c1 [Trametinib] (first compound max 2 µM, 7x7, partner max 1 µM)	-0.0681	-0.0125	0.0328	-0.0277	-0.0355	0.0286	0.0374	1	0.423	0.791	1	0	0.434	0.897	0.739	0.441	0.388	0.797	0.62	0.721
COc1cc2ncnc(Nc3ccc(F)c(Cl)c3)c2cc1OCCCN1CCOCC1 [Gefitinib] + CC(C)n1c(=O)n(C)c2cnc3cc(F)c(-c4ccc(OCCCN5CCCCC5)nc4)cc3c21 [AZD1390] (first compound max 10 µM, 7x7, partner max 0.3 µM)	-0.0847	-0.0589	-0.042	-0.0278	-0.0261	-0.0561	-0.0515	0.213	0.0642	0.368	0.0507	0	0.064	0.205	0.39	0.0868	0.082	0.943	0.0866	0.486
COc1cc2c(cc1OCCCCCOc1cc3c(cc1OC)C(=O)N1C=C(C)C[C@H]1C=N3)N=C[C@@H]1CC(C)=CN1C2=O [SG3199] + O=C(c1cc(Cc2n[nH]c(=O)c3ccccc23)ccc1F)N1CCN(C(=O)C2CC2)CC1 [Olaparib] (first compound max 0.001 µM, 7x7, partner max 10 µM)	-0.046	-0.0283	-0.012	0.0376	0.0358	-0.0193	-0.0332	0.353	0.212	0.194	0.0783	0.201	0.145	0.0981	0.0778	0.151	0.0347	0.216	0.126	0.124
C[C@@H](c1ccc2nccn2c1)n1nnc2ncc(-c3cnn(C)c3)nc21 [Savolitinib] + CC1(C)CCC(CN2CCN(c3ccc(C(=O)NS(=O)(=O)c4ccc(NCC5CCOCC5)c([N+](=O)[O-])c4)c(Oc4cnc5[nH]ccc5c4)c3)CC2)=C(c2ccc(Cl)cc2)C1 [Venetoclax] (first compound max 1 µM, 7x7, partner max 1 µM)	-0.0776	-0.0414	-0.0585	-0.0236	-0.0158	-0.0791	-0.0666	0.145	0	0.0986	0.0977	0.117	0.149	0.0879	0.191	0.152	0.0716	0.166	0.0979	0.181
C[C@@H](c1ccc2nccn2c1)n1nnc2ncc(-c3cnn(C)c3)nc21 [Savolitinib] + Cc1c2c(nn1C)CSCc1cc(n(C)n1)CSc1cc(c3ccccc3c1)OCCCc1c(C(=O)O)n(C)c3c-2c(Cl)ccc13 [AZD5991] (first compound max 1 µM, 7x7, partner max 1 µM)	-0.0864	-0.0312	-0.111	-0.0093	0.0154	-0.0713	-0.0379	0.0983	0.236	0.162	0.113	0.273	0.137	0.186	0.186	0.218	0.137	0.235	0.138	0.23
